Read-outs that look alike come from different tables or passages of the source. One block for each molecule: values may come before it.
What was measured:
[1] = Boiling point (volatility) of aminoalkanol; type: physicochemical
Text: Also, to insure operational efficiency with minimal losses of the amino compound, the amino compound should have a relatively low volatility. […]
It can be seen that in each case the boiling points increase relative to the respective parent compound while the pKa remains constant.

[2] = pKa of aminoalkanol; type: physicochemical; settings: at 20° C.
[3] = pressure not stated; background; cited from earlier work
[4] = 15N NMR chemical shift as a means of determining selectivity to H2S removal; type: physicochemical; settings: 90% by wt. amine in 10% by wt. D2O, 35° C.; liquid ammonia at 25° C. as zero reference
Description: Another means for determining whether an amino compound is selective to H2 S removal is by measuring its 15N nuclear magnetic resonance (NMR) chemical shift. […] D2 O at 35° C. is measured by a spectrometer using liquid (neat) ammonia at 25° C. as a zero reference value. For example, N-(2-hydroxyethoxyethyl)pyrrolidine (HEEP) has a ^15 N NMR chemical shift value of δ+53.2 ppm whereas diethylmonoethanolamine (DEAE), N-methyl-N-tertiarybutylaminoethoxyethanoland methyldiethanolamine (MDEA) have ^15 N NMR chemical shift values of δ+43.7, δ+45.0 and δ+27.4 ppm, respectively.

SMILES: OCCOCCCN1CCCC1
boiling point ([1]; at 20 mm): 140 °C | pKa [2]: 10.20

SMILES: CC(O)CN1CCCC1 (stereo not drawn)
boiling point ([1]; at 14 mm): 75 °C | pKa [2]: 10.20

SMILES: CC(O)COC(C)CN1CCCC1 (stereo not drawn)
boiling point ([1]; at 1 mm): 100 °C | pKa [2]: 10.20

SMILES: CCN(CC)CCO [DEAE, diethylmonoethanolamine]
boiling point [3]: 161 °C

SMILES: CC(CCO)N1CCCC1 (stereo not drawn) [H2BP, N-(4-hydroxy-2-butyl)pyrrolidine]
boiling point ([1]; at 7 mm): 98 °C | pKa [2]: 10.25

SMILES: CN1CCCCC1CCO (stereo not drawn) [MHEPi, N-methyl-2-hydroxyethylpiperidine]
boiling point ([1]; at 760 mm): 233 °C | pKa [2]: 9.90

More lines, now with the values ahead:

boiling point ([1]; at 2 mm): 95 °C | pKa [2]: 10.21
SMILES: OCCCCN1CCCC1 [HBP, N-(4-hydroxybutyl) pyrrolidine]

15N NMR chemical shift (δ+) [4]: 53.2 ppm | boiling point ([1]; at 5 mm): 110 °C | pKa [2]: 9.95
SMILES: OCCOCCN1CCCC1 [HEEP, N-(2-hydroxyethoxyethyl)pyrrolidine]

boiling point ([1]; at 13 mm): 80 °C | pKa [2]: 9.95
SMILES: OCCN1CCCC1 [HEP, N-hydroxyethylpyrrolidine]

boiling point ([1]; at 13 mm): 103 °C | pKa [2]: 10.21
SMILES: OCCCN1CCCC1 [HPP, N-(3-hydroxypropyl)pyrrolidine]

boiling point ([1]; at 5 mm): 97 °C | pKa [2]: 10.2
SMILES: OCCCN1CCCCC1 [HPPi, N-(3-hydroxypropyl)piperidine]

boiling point ([1]; at 13 mm): 101 °C | pKa [2]: 10.20
SMILES: OCCCN1CCCC1 [drawing 3]

— US4483833A, “Process for selective removal of H2 S from mixtures containing H2 2 with heterocyclic tertiary aminoalkanols” (Exxon Research & Engineering Co., priority 1982, dated 1984)
